Legend:
[1] = target: Retinoic acid receptor beta (Homo sapiens) (UniProt P10826); assay: Binding affinity against retinoic acid receptor beta by [3H]ATRA displacement.
[2] = target: Retinoic acid receptor gamma (Homo sapiens) (UniProt P13631); assay: Binding affinity against retinoic acid receptor gamma by [3H]ATRA displacement.
Retinoic acid receptor gamma (Homo sapiens), sequence (P13631 whole entry, looked up): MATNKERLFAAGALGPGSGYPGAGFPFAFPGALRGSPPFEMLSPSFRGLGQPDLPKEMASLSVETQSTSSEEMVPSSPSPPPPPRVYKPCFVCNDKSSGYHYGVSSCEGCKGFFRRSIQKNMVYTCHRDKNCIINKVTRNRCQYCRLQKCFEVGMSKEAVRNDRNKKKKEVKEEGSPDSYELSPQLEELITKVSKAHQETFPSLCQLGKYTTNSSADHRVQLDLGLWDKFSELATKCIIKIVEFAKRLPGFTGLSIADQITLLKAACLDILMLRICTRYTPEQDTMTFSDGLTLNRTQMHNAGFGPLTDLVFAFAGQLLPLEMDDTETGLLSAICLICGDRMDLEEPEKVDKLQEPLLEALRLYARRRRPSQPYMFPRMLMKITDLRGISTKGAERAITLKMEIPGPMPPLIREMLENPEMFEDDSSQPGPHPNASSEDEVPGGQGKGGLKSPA

Retinoic acid receptor beta (Homo sapiens), sequence (P10826 whole entry, looked up): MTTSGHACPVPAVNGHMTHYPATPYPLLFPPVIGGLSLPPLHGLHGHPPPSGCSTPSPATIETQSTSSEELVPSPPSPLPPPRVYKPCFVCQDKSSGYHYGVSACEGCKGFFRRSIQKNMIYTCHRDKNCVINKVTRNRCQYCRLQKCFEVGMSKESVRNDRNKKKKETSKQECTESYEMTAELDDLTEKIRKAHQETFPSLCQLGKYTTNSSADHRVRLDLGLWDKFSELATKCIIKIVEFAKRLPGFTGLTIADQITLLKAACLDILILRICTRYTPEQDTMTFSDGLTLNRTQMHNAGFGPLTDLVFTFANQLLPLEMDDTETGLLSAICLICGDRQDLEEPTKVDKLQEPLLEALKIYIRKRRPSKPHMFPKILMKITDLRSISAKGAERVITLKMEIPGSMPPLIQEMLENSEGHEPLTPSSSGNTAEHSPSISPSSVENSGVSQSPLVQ

SMILES | Ki [1] | Ki [2]
CCCCOc1c(-c2cccc3cc(/C(C)=C(\F)C(=O)O)oc23)cc(C(C)C)cc1C(C)C [(Z)-3-[7-(2-Butoxy-3,5-diisopropyl-phenyl)-benzofuran-2-yl]-2-fluoro-but-2-enoic acid] | > 10 µM | > 10 µM
C/C(=C\C(=O)O)c1cc2c(-c3cc(C(C)(C)C)cc(C(C)(C)C)c3OCC(F)(F)F)cccc2s1 [(E)-3-{4-[3,5-Di-tert-butyl-2-(2,2,2-trifluoro-ethoxy)-phenyl]-benzo[b]thiophen-2-yl}-but-2-enoic acid] | > 10 µM | > 10 µM
C/C(=C\C(=O)O)c1cc2c(-c3cc(C(C)(C)C)cc(C(C)(C)C)c3OCCCF)cccc2s1 [(E)-3-{4-[3,5-Di-tert-butyl-2-(3-fluoro-propoxy)-phenyl]-benzo[b]thiophen-2-yl}-but-2-enoic acid] | > 10 µM | > 10 µM
C/C(=C/C=C/C(C)=C/C(=O)O)c1cc(C(C)(C)C)cc(C(C)(C)C)c1OCC(F)F [7-[3,5-Di-tert-butyl-2-(2,2-difluoro-ethoxy)-phenyl]-3-methyl-octa-2,4,6-trienoic acid] | > 1 µM | > 1 µM
C/C(=C\C(=O)O)c1cc2c(-c3cc(C(C)(C)C)cc(C(C)(C)C)c3C)cccc2s1 [(E)-3-[4-(3,5-Di-tert-butyl-2-methyl-phenyl)-benzo[b]thiophen-2-yl]-but-2-enoic acid] | > 10 µM | > 10 µM
C/C(=C(/F)C(=O)O)c1cc2cccc(-c3cc(C(C)C)cc(C(C)C)c3OCC(F)F)c2o1 [(Z)-3-{7-[2-(2,2-Difluoro-ethoxy)-3,5-diisopropyl-phenyl]-benzofuran-2-yl}-2-fluoro-but-2-enoic acid] | > 10 µM | > 10 µM
CCCCCCCOc1c(-c2cccc3sc(/C(C)=C/C(=O)O)cc23)cc(C(C)(C)C)cc1C(C)(C)C [(E)-3-[4-(3,5-Di-tert-butyl-2-heptyloxy-phenyl)-benzo[b]thiophen-2-yl]-but-2-enoic acid] | > 10 µM | > 10 µM

Results, then the molecule that gave them:

Ki [1] | Ki [2] | SMILES
> 10 µM | > 10 µM | C/C(=C\C(=O)O)c1cc2cccc(-c3cc(C(C)C)cc(C(C)C)c3OCCCF)c2o1 [(E)-3-{7-[2-(3-Fluoro-propoxy)-3,5-diisopropyl-phenyl]-benzofuran-2-yl}-but-2-enoic acid]
5.94 µM | 10 µM | CCOc1c(-c2cccc3sc(/C(C)=C/C(=O)O)cc23)cc(C(C)C)cc1C(C)C [(E)-3-[4-(2-Ethoxy-3,5-diisopropyl-phenyl)-benzo[b]thiophen-2-yl]-but-2-enoic acid]
> 10 µM | > 10 µM | CCOc1c(-c2cccc3cc(/C(C)=C/C(=O)O)oc23)cc(C(C)C)cc1C(C)C [(E)-3-[7-(2-Ethoxy-3,5-diisopropyl-phenyl)-benzofuran-2-yl]-but-2-enoic acid]
> 10 µM | > 10 µM | CCCOc1c(-c2cccc3sc(/C(C)=C/C(=O)O)cc23)cc(C(C)C)cc1C(C)C [(E)-3-[4-(3,5-Diisopropyl-2-propoxy-phenyl)-benzo[b]thiophen-2-yl]-but-2-enoic acid]
> 10 µM | > 10 µM | C/C(=C\C(=O)O)c1cc2cccc(-c3cc(C(C)C)cc(C(C)C)c3OCC(F)F)c2o1 [(E)-3-{7-[2-(2,2-Difluoro-ethoxy)-3,5-diisopropyl-phenyl]-benzofuran-2-yl}-but-2-enoic acid]
9.2 µM | > 10 µM | CCCOc1c(-c2cccc3cc(/C(C)=C/C(=O)O)oc23)cc(C(C)C)cc1C(C)C [(E)-3-[7-(3,5-Diisopropyl-2-propoxy-phenyl)-benzofuran-2-yl]-but-2-enoic acid]
– | > 10 µM | CCOc1c(-c2cccc3cc(/C(C)=C/C(=O)O)sc23)cc(C(C)C)cc1C(C)C [(E)-3-[7-(2-Ethoxy-3,5-diisopropyl-phenyl)-benzo[b]thiophen-2-yl]-but-2-enoic acid]
> 10 µM | > 10 µM | C/C(=C\C(=O)O)c1cc2c(-c3cc(C(C)(C)C)cc(C(C)(C)C)c3OCC(F)F)cccc2s1 [(E)-3-{4-[3,5-Di-tert-butyl-2-(2,2-difluoro-ethoxy)-phenyl]-benzo[b]thiophen-2-yl}-but-2-enoic acid]
> 10 µM | > 10 µM | C/C(=C\C(=O)O)c1cc2c(-c3cc(C(C)(C)C)cc(C(C)(C)C)c3OCCC(F)F)cccc2s1 [(E)-3-{4-[3,5-Di-tert-butyl-2-(3,3-difluoro-propoxy)-phenyl]-benzo[b]thiophen-2-yl}-but-2-enoic acid]
2.7 µM | > 10 µM | C/C(=C\C(=O)O)c1cc2cccc(-c3cc(C(C)C)cc(C(C)C)c3OCC(F)(F)F)c2o1 [(E)-3-{7-[3,5-Diisopropyl-2-(2,2,2-trifluoro-ethoxy)-phenyl]-benzofuran-2-yl}-but-2-enoic acid]
